# Where two headings read alike, the source gives them in different places.
# Key:
# [1] = cited from earlier work
# PPARg P-serine 273 = experiment: Immunoblot of PPARg phosphorylation at serine 273; format: cell-based, human; conditions: 50 nM myricetin + 8 μM NR + 2 μM BC, 7 days
# Experimental: Phosphorylation of PPARg by CDK5 at serine-273 is an important mechanism for inhibition of target genes for insulin sensitivity^7. Inhibitors of CDK5 have potential as diabetes drugs^8. Several studies have provided that myricetin is a CDK5 inhibitor and has insulin sensitizing characteristics that make it a potential therapeutic for diabetes^9,10. We previously analyzed NRBC for effects on PPARg phosphorylation at serine 273. Human adipocytes were treated with 8 μM NR and 2 μM BC for three, five and seven days, and protein was isolated and analyzed on immunoblots probed with an antibody specific for human P-serine 273 PPARg. The same blot was stripped and re-probed with an antibody for total human PPARg. Values in the histogram represent (P-ser 273 PPARg)/(total PPARg). […] The effect increases over time.
# The experiment for analysis of phosphorylation of PPARg at P-273 was repeated to determine whether adding myricetin to NRBC can further inhibit PPARg P-273 phosphorylation. Cells were treated for seven days with 8 μM NR, 2 μM BC and 50 nM myricetin. Protein was analyzed on immunoblots probed with the same antibodies.
# human adipocytes = experiment: Protein levels by Western blotting in human adipocytes treated for seven days; format: cell-based; conditions: for PGC-1α protein, myricetin added to NRBC: 50 nM myricetin + NRBC, compared to NRBC
# [2] = rats orally administered 50 mg/kg and 100 mg/kg
compound,measurement,setting,value
O=c1c(O)c(-c2cc(O)c(O)c(O)c2)oc2cc(O)cc(O)c12 [myricetin],AUC0-∞,"[1]; rat, i.v., 0.5 mg/kg",1452.85 ± 170.30 ng·h/mL
same,CL,"[1]; rat, i.v., 0.5 mg/kg",5.83 ± 0.83 mL/min/kg
same,Cmax,"[1]; rat, i.v., 0.5 mg/kg",2232.16 ± 856.36 ng/mL
same,Tmax,"[1]; rat, i.v., 0.5 mg/kg",0 (pre-dose) h
same,Vd,"[1]; rat, i.v., 0.5 mg/kg",4.12 ± 1.52 L/kg
same,t1/2,"[1]; rat, i.v., 0.5 mg/kg",6.99 ± 1.94 h
same,AUC0-∞,"[1]; rat, p.o., 50 mg/kg","13,731.13 ± 5,574.58 ng · h/mL"
same,Bioavailability,"[1]; rat, p.o., 50 mg/kg",9.62%
same,Cmax,"[1]; rat, p.o., 50 mg/kg",1488.75 ± 200.78 ng/mL
same,Tmax,"[1]; rat, p.o., 50 mg/kg",6.4 ± 0.89 h
same,t1/2,"[1]; rat, p.o., 50 mg/kg",2.78 ± 0.81 h
same,AUC0-∞,"[1]; rat, p.o., 100 mg/kg","28,081.62 ± 10,982.45 ng · h/mL"
same,Bioavailability,"[1]; rat, p.o., 100 mg/kg",9.74%
same,Cmax,"[1]; rat, p.o., 100 mg/kg",2611.76 ± 1019.58 ng/mL
same,Tmax,"[1]; rat, p.o., 100 mg/kg",5.2 ± 3.03 h
same,t1/2,"[1]; rat, p.o., 100 mg/kg",3.79 ± 0.75 h
same,oral bioavailability,[1]; [2],approximately 10%
same,time to maximal concentration (Tmax),[1]; [2],6.5 h
same,"PPARg P-273 phosphorylation, myricetin added to NRBC",PPARg P-serine 273,did not further decrease PPARg P-273 relative to NRBC
same,"PPARg P-273 phosphorylation, myricetin added to NRBC",PPARg P-serine 273; listed as Myricetin,did not alter phosphorylation of PPARg at serine-273
same,"PGC-1α protein, myricetin added to NR",human adipocytes; 50 nM myricetin + 8 μM NR,small increase
same,"PGC-1α protein, myricetin added to NRBC",human adipocytes,two-fold higher
same,"PGC-1α protein, myricetin added to NRBC",human adipocytes; listed as Myricetin,over two-fold
same,PGC-1α protein levels,"human adipocytes; 50 nM myricetin, 7 days",robustly upregulated

# — patent publication US20250213519A1, “SYNERGY FOR INCREASING INSULIN SENSITIVITY” (Board of Supervisors of Louisiana State University and …, priority 2022, published 2025)
